Test results published in US8962634B2, “4-amino-3-arylamino-6-arylpyrazolo[3,4-d) pyrimidine derivatives, methods for their preparation and their use as antiviral agents” (priority 2006, dated 2015).
Converted amounts (≈) assume the structure as drawn. Where two headings read alike, the source gives them in different places. Blank lines part the entries; values can stand above or below the compound they belong to.

Experiments:
[1] = tested on: coxsackievirus B3 Nancy (CVB3 Nancy); assay: Cytopathic effect (cpE)-inhibition test in HeLa cells, CVB3 Nancy; type: cell-based; details: 24 h after infection; for IC50: Enterovirus B, read-out: 50% inhibition concentration CVB3 Nancy
Protocol: (§1) Cytopathic effect (cpE)-inhibition test with the international reference strain coxsackievirus B3 Nancy (CVB3 Nancy), human rhinovirus 2 and 8 (HRV2 and […]) in HeLa cells
(§2) The replication of the viruses used in the test leads to the complete destruction of the host cells, a strong cytophatic effect (cpE). […] In the test, untreated and substance-treated compact cell lawns were infected with a virus dose that leads to a complete cpE in the untreated virus controls 24 h (CVB3 Nancy) or 72 h (HRV2 and HRV8) after the infection. At this point in time, the still adherent cells were fixed and dyed with a crystal-violet/formalin solution. The inhibition of the virus-induced cpE was quantified photometrically in a Dynatach plate reader after dye elution. The antiviral effect was calculated by comparing the optical densities of the substance-treated and untreated, virus-infected cells with the mean optical density of the cell controls that was assumed to be 100%. By means of the mean dose effect curves the 50% inhibition concentration was determined. Pleconaril was used as a control substance.

[2] = tested on: human rhinovirus 8 (HRV8); assay: Cytopathic effect (cpE)-inhibition test in HeLa cells, HRV8; type: cell-based; details: for IC50: Rhinovirus A, read-out: 50% inhibition concentration HRV8
Protocol: as §1, §2

[3] = tested on: human rhinovirus 2 (HRV2); assay: Cytopathic effect (cpE)-inhibition test in HeLa cells, HRV2; type: cell-based; details: for IC50: Rhinovirus A, read-out: 50% inhibition concentration HRV2
Protocol: as §1, §2

GMK cells = assay: Tolerance in the cell culture: cytotoxicity in GMK cells (CC50); type: cell-based; details: 72 h incubation
Protocol: (§3) 1×10^4 HeLa cells (DSMZ, ACC 57) were seeded per microtestplate cavity in 0.2 ml culture medium RPMI 1640. The microtiter plates were incubated without the test substance according to standard (at 37° C., 5% CO2 and ca. 95% relative humidity) for 48 hours under physiological conditions to produce subconfluent monolayers. Afterwards, dilution stages of the test substances were added to the monolayers and incubated under physiological conditions during a period of 72 h. At the end of the time of incubation, the extinction of all cavities of the microtiterplates were measured at 660 nm by means of a microplate reader (Sunrise, TECAN) after glutaraldehyd fixation and methylen-blue dye and the CC50 was determined by the analysis program “Magellan”. As the pre-incubation of the HeLa cells already leads to the formation of a subconfluent cell lawn, the cytolysis during the subsequent incubation with the test substance is decisive for the analysis. GMK cells were seemed in microtiter plates and preincubated at 5% CO2, 37° C. and with a humidity of 95% in the incubator during 48 h for producing a cell lawn (Schmidtke M et al.: J Virol Meth, 2001, 95(1-2), 133-143). Then, the medium was removed and the substances were deposited in different concentrations (100 μl/well/concentration, dilution factor 2) in the culture medium. 100 μl of the medium was used for each of the control value determinations (six untreated cell controls). 72 h after the substance application and incubation, the cells were dyed with crystal-violet/methanol. After the extraction of the dye, the optical density (OD) of the individual cavities were measured in a plate photometer of the Dynatech company (550/630 nm) and compared with the mean value of the cell controls. The mean value of the controls was assumed to be 100 %. By means of the mean dose effect curves the 50% cytotoxic concentrations (CC50) were measured by applying the linear interpolation method.

HeLa cells = assay: Tolerance in the cell culture: cytotoxicity in HeLa cells (CC50); type: cell-based; details: 72 h incubation
Protocol: as §3

mice = assay: Acute toxicity in the mouse, single oral administration; type: in vivo; details: for Number of dead/surviving mice: 5 mice; for substance concentration up to which all animals survived: administered orally once, mice; for tolerability after administering orally once: mouse, in vivo, po; for influence on general state of health, rectal temperature, body weight: up to 3.000 mg/kg orally once, three days observation
Protocol: The acute toxicity of the substances of the examples 2 and 4 were determined in mice which were 4-5 weeks old (without strain designation). 1-2 drops TWIN-80 were added to a 1% aqueous carboxymethyl cellulose solution and this mixture was used to produce a substance suspension. 1500, 2000, 2500, 3000, 4000 or 5000 mg/kg of the substances of the examples 2 and 4 were administered orally to 5 mice, each amount once. On the following three days, the general state of health of the mice, the changes in their weight, their rectal temperatures and their survival rate were determined.

coxsackievirus B1 (CVB1) = assay: Plaque reduction test (PRT) in HeLa cells, CVB1; type: cell-based
Protocol: (§4) Plaque reduction test (PRT) with the substance of example 1 and coxsackievirus B1, B2, B4, B5, B6 (CVB1, CVB2, CVB4, CVB5, CVB6)
(§5) For performing the test, 2-3-days-old compact HeLa cell lawns were infected in 12-well-tissue culture plates with 50-80 plaque-forming units (PFU) (Schmidtke M et al.: J Virol Meth, 2001, 95(1-2), 133-143). Two non-infected cavities of the plate were used as cell controls (CC). After a virus adsorption at 37° C. during one hour the virus-containing supernatant was soaked off. The infected cells were covered with a test medium containing 0.4% agar without (virus controls) or with substance in non-zytotoxic concentrations (dilution factor 2, double determination per concentration) and incubated at 37° C. during 48 h. After the fixation and dyeing of the plates with crystal-violet formalin, the agar was removed and rinsed in flowing water. The number of the virus-induced plaques was counted via a light box and afterwards the proportional substance-induced plaque reduction was calculated. Three identical test approaches were performed and the concentration that leads to a 50% plaque reduction (IC50) was measured by using the calculated mean dose-effect-curve.

coxsackievirus B2 (CVB2) = assay: Plaque reduction test (PRT) in HeLa cells, CVB2; type: cell-based
Protocol: as §4, §5

[4] = Tolerance in the cell culture: cytotoxicity in HeLa cells (CC50); type: cell-based; details: human, repeated per virus line of the plaque reduction table, read-out: 50% zytotoxic concentration in HeLa cells (CC50)
Protocol: as §3

coxsackievirus B5 (CVB5) = assay: Plaque reduction test (PRT) in HeLa cells, CVB5; type: cell-based
Protocol: as §4, §5

coxsackievirus B4 (CVB4) = assay: Plaque reduction test (PRT) in HeLa cells, CVB4; type: cell-based
Protocol: as §4, §5

coxsackievirus B6 (CVB6) = assay: Plaque reduction test (PRT) in HeLa cells, CVB6; type: cell-based
Protocol: as §4, §5

[5] = HRV8, cpE inhibition, HeLa cells, 72 h after infection
[6] = HRV2, cpE inhibition, HeLa cells, 72 h after infection
[7] = cpE inhibition, HeLa cells, 72 h after infection

SMILES: Cc1cc(CCCOc2c(C)cc(-c3noc(C(F)(F)F)n3)cc2C)on1 [Pleconaril, reference compound]
50% inhibition concentration CVB3 Nancy [1]: ineffective | IC50 ([2]; HRV8, HeLa, 72 h): 1.3 µg/mL (≈ 3.41 µM) | IC50 ([3]; HRV2, HeLa, 72 h): 0.01 µg/mL (≈ 0.0262 µM)

IC50 [1]: 0.03 µg/mL (≈ 0.0937 µM) | melting point: 259 to 263 °C | IC50 [2, 5]: 2 µg/mL (≈ 6.24 µM) | IC50 [3, 6]: 0.9 µg/mL (≈ 2.81 µM)
SMILES: Nc1nc(-c2ccccc2)nc2[nH]nc(Nc3ccc(F)cc3)c12 [Example 6, 4-amino-3-(4-fluorophenyl)amino-6-phenylpyrazolo[3,4-d]pyrimidine]
50% cytotoxic concentration in GMK cells (GMK cells): >50 µg/mL | 50% cytotoxic concentration in HeLa cells (HeLa cells): 44.3 µg/mL

SMILES: Cc1ccc(Nc2n[nH]c3nc(-c4ccccc4)nc(N)c23)cc1 [Example 4, 4-amino-3-(4-methylphenyl)amino-6-phenylpyrazolo[3,4-d]pyrimidine]
IC50 [1]: 0.08 µg/mL (≈ 0.253 µM) | 50% cytotoxic concentration in GMK cells (GMK cells): >50 µg/mL | IC50 [2, 5]: 2.2 µg/mL (≈ 6.95 µM) | 50% cytotoxic concentration in HeLa cells (HeLa cells): >50 µg/mL | Number of dead/surviving mice (mice; 1500 mg/kg orally once): 0/5 | Number of dead/surviving mice (mice; 2000 mg/kg orally once): 0/5 | Number of dead/surviving mice (mice; 2500 mg/kg orally once): 0/5 | Number of dead/surviving mice (mice; 3000 mg/kg orally once): 0/5 | Number of dead/surviving mice (mice; 4000 mg/kg orally once): 4/5 | Number of dead/surviving mice (mice; 5000 mg/kg orally once): 5/5 | substance concentration up to which all animals survived (mice): 3.000 mg/kg | tolerability after administering orally once (mice): very tolerable | influence on general state of health, rectal temperature, body weight (mice): Neither the general state of health nor the rectal temperature nor the body weight was influenced | IC50 [3, 6]: 1.8 µg/mL (≈ 5.69 µM)

SMILES: Nc1nc(-c2ccccc2)nc2[nH]nc(Nc3cccc(F)c3)c12 [Example 2, 4-amino-3-(3-fluorophenyl)amino-6-phenylpyrazolo[3,4-d]pyrimidine]
IC50 [1]: 0.001 µg/mL (≈ 0.00312 µM) | 50% cytotoxic concentration in GMK cells (GMK cells): >50 µg/mL | IC50 [2, 5]: 4.6 µg/mL (≈ 14.4 µM) | 50% cytotoxic concentration in HeLa cells (HeLa cells): 45.7 µg/mL | Number of dead/surviving mice (mice; 1500 mg/kg orally once): 0/5 | Number of dead/surviving mice (mice; 2000 mg/kg orally once): 0/5 | Number of dead/surviving mice (mice; 2500 mg/kg orally once): 0/5 | Number of dead/surviving mice (mice; 3000 mg/kg orally once): 0/5 | Number of dead/surviving mice (mice; 4000 mg/kg orally once): 3/5 | Number of dead/surviving mice (mice; 5000 mg/kg orally once): 5/5 | substance concentration up to which all animals survived (mice): 3.000 mg/kg | tolerability after administering orally once (mice): very tolerable | influence on general state of health, rectal temperature, body weight (mice): Neither the general state of health nor the rectal temperature nor the body weight was influenced | IC50 [3, 6]: 4.1 µg/mL (≈ 12.8 µM)

IC50 [1]: 0.04 µg/mL (≈ 0.105 µM) | melting point: 272 to 274 °C | IC50 [2, 5]: 1 µg/mL (≈ 2.62 µM) | IC50 [3, 6]: 0.7 µg/mL (≈ 1.84 µM)
SMILES: Nc1nc(-c2ccccc2)nc2[nH]nc(Nc3ccc(Br)cc3)c12 [Example 5, 4-amino-3-(4-bromophenyl)amino-6-phenylpyrazolo[3,4-d]pyrimidine]
50% cytotoxic concentration in GMK cells (GMK cells): 42.9 µg/mL | 50% cytotoxic concentration in HeLa cells (HeLa cells): 8.5 µg/mL

IC50 [1]: 0.02 µg/mL (≈ 0.0632 µM) | melting point: 246 to 248 °C | IC50 [2, 5]: 1 µg/mL (≈ 3.16 µM) | IC50 [3, 6]: 1.1 µg/mL (≈ 3.48 µM)
SMILES: Cc1cccc(Nc2n[nH]c3nc(-c4ccccc4)nc(N)c23)c1 [Example 3, 4-amino-3-(3-methylphenyl)amino-6-phenylpyrazolo[3,4-d]pyrimidine]
50% cytotoxic concentration in HeLa cells (HeLa cells): 27.7 µg/mL

SMILES: Nc1nc(-c2ccccc2)nc2[nH]nc(Nc3ccccc3)c12 [Example 1, 4-amino-3-phenylamino-6-phenylpyrazolo[3,4-d]pyrimidine]
Selection index (SI) = CC50:IC50 (coxsackievirus B1 (CVB1); CVB1): 3.1 | IC50 (coxsackievirus B1 (CVB1); Enterovirus B, HeLa, plaque reduction, CVB1, 48 h, read-out: 50% inhibition concentration in HeLa cells (IC50)): 12.7 µg/mL (≈ 42 µM) | IC50 [1]: 0.002 µg/mL (≈ 0.00662 µM) | Selection index (SI) = CC50:IC50 (coxsackievirus B2 (CVB2); CVB2): 132 | IC50 (coxsackievirus B2 (CVB2); Enterovirus B, HeLa, plaque reduction, CVB2, 48 h, read-out: 50% inhibition concentration in HeLa cells (IC50)): 0.3 µg/mL (≈ 0.992 µM) | 50% cytotoxic concentration in GMK cells (GMK cells): >50 µg/mL | 50% inhibition concentration HRV8 [2, 7]: ineffective | CC50 at 72 h [4]: 39.6 µg/mL (≈ 131 µM) | 50% cytotoxic concentration in HeLa cells (HeLa cells): 39.6 µg/mL | Selection index (SI) = CC50:IC50 (coxsackievirus B5 (CVB5); CVB5): 14.1 | IC50 (coxsackievirus B5 (CVB5); Enterovirus B, HeLa, plaque reduction, CVB5, 48 h, read-out: 50% inhibition concentration in HeLa cells (IC50)): 2.8 µg/mL (≈ 9.26 µM) | Selection index (SI) = CC50:IC50 (coxsackievirus B4 (CVB4); CVB4): 5.6 | IC50 (coxsackievirus B4 (CVB4); Enterovirus B, HeLa, plaque reduction, CVB4, 48 h, read-out: 50% inhibition concentration in HeLa cells (IC50)): 7.1 µg/mL (≈ 23.5 µM) | 50% inhibition concentration HRV2 [3, 7]: ineffective | Selection index (SI) = CC50:IC50 (coxsackievirus B6 (CVB6); CVB6): 15.3 | IC50 (coxsackievirus B6 (CVB6); Enterovirus B, HeLa, plaque reduction, CVB6, 48 h, read-out: 50% inhibition concentration in HeLa cells (IC50)): 2.6 µg/mL (≈ 8.6 µM)
